Results reported in patent publication US20180238886A1, “METHODS FOR TREATING HEMATOLOGICAL CANCER AND THE USE OF BIOMARKERS AS A PREDICTOR FOR RESPONSIVENESS TO TREATMENT COMPOUNDS” (CELGENE CORPORATION, priority 2017, published 2018).

Tested on: DLBCL patients
Experiment: Clinical evaluation of gene classifiers in the Compound A cohort (progression free survival, objective response)
Type: in vivo, human
Set-up: Median Surv BM+ / Median Surv BM−: unit not given here
Details: for Predictive Effects Cox HR: BM+ vs BM-; for Predictive Effects Cox HR / Median Surv BM− / Median Surv BM+: progression free survival, Cmp A-ST (N = 57); for Median Surv BM−: biomarker-negative patients; for Median Surv BM+: biomarker-positive patients; for CR BM+ / CR BM−: number of complete responses; for OR BM+ / OR BM−: number of objective responses
Description: A proof of principle study was designed to translate the biomarker content and model to a clinically viable platform. The study consisted of four major steps: 1) development of a simplified linear model of the primary signal, 2) placing the model in the scale of a clinically viable technology (such as but not limited to, Nanostring nCounter or qRT-PCR), 3) establishing a threshold to replicate the output of the research assay, and 4) evaluating the simplified model and threshold in the Compound A cohort. The final model was applied to the Lenz microarray cohort and the Compound A Non-transformed cohort assayed by Nanostring nCounter. The classification of each sample was then combined with clinical data, and associations with clinical variables such as objective response and progression free survival were calculated. Results are shown as Kaplan-Meier plots in FIGS. 4A-4D. […] FIGS. 4A and 4C show the original 26 gene research classifier, and FIGS. 4B and 4D show the linear model that resulted from this bridging study. […] Importantly, the shapes of the curves for each group are very similar between the original 26 gene classifier and the bridged linear model. Additional results including biomarker prevalence, summary statistics from Cox Proportional Hazards models, objective response, and model details are listed in Table 6.

[1] = CG26 classifier, BM+ (25 patients)
[2] = CG26 classifier, BM− (32 patients)
[3] = M1 classifier, BM+ (22 patients)
[4] = M1 classifier, BM− (35 patients)

Cc1nc2cccc(N)c2c(=O)n1C1CCC(=O)NC1=O (centres unmarked) [Compound A, 3-(5-amino-2-methyl-4-oxo-4H-quinazolin-3-yl)-piperidine-2,6-dione]
Predictive Effects Cox HR (CG26 classifier): 0.31
Median Surv BM− (CG26 classifier): 6.7
Median Surv BM+ (CG26 classifier): 35.9
Predictive Effects Cox HR (M1 classifier): 0.32
Median Surv BM− (M1 classifier): 6.9
Median Surv BM+ (M1 classifier): 37.9
CR BM+ [1]: 4
CR BM− [2]: 2
CR BM+ [3]: 4
CR BM− [4]: 2
OR BM+ [1]: 12
OR BM− [2]: 5
OR BM+ [3]: 10
OR BM− [4]: 7
